Experimental data: ChEMBL document CHEMBL5325405, “Rationally designed donepezil-based hydroxamates modulate Sig-1R and HDAC isoforms to exert anti-glioblastoma effects” (Eur J Med Chem, 2023)
Activity calls are given as the source filed them. No cut-off for these calls is given here.

What was measured:
U-87 MG [1] = assay: cells; assay type: functional, cell-based, U-87MG ATCC; settings: Homo sapiens
Astrocyte = assay: Cytotoxicity against primary astrocyte cells (unknown origin) assessed as reduction in cell growth at 3 uM measured after 3 days by MTT assay; assay type: toxicity, cell-based; settings: 72 h, time 3 day
A 172 [2] = assay: Upregulation of acetylated Sig-1R expression in human A-172 cells by immunoblotting analysis; assay type: functional, cell-based
GBM [3] = assay: Antitumor activity against Temozolomide-resistant patient derived GBM cells assessed as reduction in cell growth measured after 3 uM measured after 3 days by MTT assay; assay type: functional, cell-based; settings: Homo sapiens, time 3.0 day
Histone deacetylase 8 = target: T1, Histone deacetylase 8 (Homo sapiens, UniProt Q9BY41); assay: Inhibition of human HDAC8
T1 sequence (Q9BY41 whole entry): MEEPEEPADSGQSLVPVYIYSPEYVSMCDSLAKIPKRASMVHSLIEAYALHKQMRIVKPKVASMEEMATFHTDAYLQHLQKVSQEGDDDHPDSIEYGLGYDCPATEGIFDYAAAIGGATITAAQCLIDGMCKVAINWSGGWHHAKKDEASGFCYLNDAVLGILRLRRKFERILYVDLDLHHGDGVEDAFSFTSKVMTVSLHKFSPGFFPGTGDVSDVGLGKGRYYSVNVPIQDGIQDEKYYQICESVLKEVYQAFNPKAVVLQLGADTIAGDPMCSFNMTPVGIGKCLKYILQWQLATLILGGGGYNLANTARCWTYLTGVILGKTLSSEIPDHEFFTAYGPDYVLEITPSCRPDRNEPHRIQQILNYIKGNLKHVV

Histone deacetylase 1 = Histone deacetylase 1 (Homo sapiens, UniProt Q13547); assay: Inhibition of human HDAC1
[4] = target: T2, Protein deacetylase HDAC6 (Homo sapiens, UniProt Q9UBN7); assay: Inhibition of human HDAC6
T2 sequence (Q9UBN7 whole entry): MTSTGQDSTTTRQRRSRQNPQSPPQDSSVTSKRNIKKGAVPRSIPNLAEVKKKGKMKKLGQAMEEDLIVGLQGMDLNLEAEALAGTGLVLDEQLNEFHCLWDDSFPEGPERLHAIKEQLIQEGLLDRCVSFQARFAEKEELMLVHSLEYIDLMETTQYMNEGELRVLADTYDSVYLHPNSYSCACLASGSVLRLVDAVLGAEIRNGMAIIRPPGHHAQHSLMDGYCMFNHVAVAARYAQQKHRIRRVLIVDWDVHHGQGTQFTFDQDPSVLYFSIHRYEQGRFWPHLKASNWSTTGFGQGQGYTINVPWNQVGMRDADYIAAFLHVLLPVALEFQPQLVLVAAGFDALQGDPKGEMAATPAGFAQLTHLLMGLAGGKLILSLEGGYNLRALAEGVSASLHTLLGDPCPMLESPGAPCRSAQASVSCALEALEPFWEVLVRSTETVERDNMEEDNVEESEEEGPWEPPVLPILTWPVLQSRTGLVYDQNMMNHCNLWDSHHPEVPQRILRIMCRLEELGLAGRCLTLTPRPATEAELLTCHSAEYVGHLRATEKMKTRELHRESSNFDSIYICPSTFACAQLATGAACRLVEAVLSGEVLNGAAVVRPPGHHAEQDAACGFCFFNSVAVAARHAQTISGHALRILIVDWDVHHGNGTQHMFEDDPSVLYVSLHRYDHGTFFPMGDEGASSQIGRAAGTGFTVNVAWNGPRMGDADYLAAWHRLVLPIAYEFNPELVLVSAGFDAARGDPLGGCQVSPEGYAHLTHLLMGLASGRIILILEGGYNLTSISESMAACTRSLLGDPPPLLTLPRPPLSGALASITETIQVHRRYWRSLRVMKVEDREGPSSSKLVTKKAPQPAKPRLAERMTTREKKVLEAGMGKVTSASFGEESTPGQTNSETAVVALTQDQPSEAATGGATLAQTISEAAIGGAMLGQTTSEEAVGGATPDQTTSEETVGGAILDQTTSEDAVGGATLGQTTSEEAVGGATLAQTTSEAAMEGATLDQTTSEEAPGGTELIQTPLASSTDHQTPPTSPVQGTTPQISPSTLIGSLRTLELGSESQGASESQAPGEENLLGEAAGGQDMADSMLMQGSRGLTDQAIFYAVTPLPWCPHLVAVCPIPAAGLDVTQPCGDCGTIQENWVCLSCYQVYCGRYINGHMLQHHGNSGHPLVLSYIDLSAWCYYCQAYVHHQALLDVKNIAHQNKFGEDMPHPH

U-87 MG [5] = assay: Cytotoxicity against human U-87 MG cells assessed as reduction in cell growth at 10 uM measured after 3 days by MTT assay; assay type: functional, U-87MG ATCC; set-up: scale not given: the % may be the effect or the level left; settings: time 3 day
Histone deacetylase 2 = Histone deacetylase 2 (Homo sapiens, UniProt Q92769); assay: Inhibition of human HDAC2
Glioblastoma stem cell [6] = assay: Antiproliferative activity against Temozolomide-resistant patient derived pt 3 Glioblastoma stem cell sphere assessed as reduction in cell viability at 30 uM measure after 3 days by MTT assay; assay type: functional, cell-based; settings: Homo sapiens, time 3.0 day
Glioblastoma stem cell [7] = assay: Antiproliferative activity against Temozolomide-resistant patient derived pt 5 Glioblastoma stem cell sphere assessed as reduction in cell viability at 30 uM measure after 3 days by MTT assay; assay type: functional, cell-based; settings: Homo sapiens, time 3.0 day
U-87 MG [8] = assay: Cytotoxicity against human U-87 MG cells assessed as reduction in cell growth at 30 uM measured after 3 days by MTT assay; assay type: functional, U-87MG ATCC; set-up: scale not given: the % may be the effect or the level left; settings: time 3 day
GBM [9] = assay: Inhibition of colony formation in Temozolomide-resistant patient derived pt 3 GBM cells at 3 to 30 uM measured after 3 days by crystal violet staining based analysis; assay type: functional, cell-based; settings: Homo sapiens, dose 3-30 µM, time 3.0 day
GBM [10] = assay: Inhibition of colony formation in Temozolomide-resistant patient derived pt 5 GBM cells at 3 to 30 uM measured after 3 days by crystal violet staining based analysis; assay type: functional, cell-based; settings: Homo sapiens, dose 3-30 µM, time 3.0 day
A 172 [11] = assay: Induction of cell cycle arrest in human A-172 cells assessed as increase in accumulation of cells at G2/M phase at 10 uM measured after 24 hrs by propidium iodide staining based flow cytometry analysis; assay type: functional
A 172 [12] = assay: Upregulation of acetylated tubulin expression in human A-172 cells at 1 to 10 uM measured after 8 to 24 hrs by Western blotting analysis; assay type: functional, cell-based; settings: dose 1-10 µM, time 8-24 hrs
A 172 [13] = assay: […] caspase-3 expression in human A-172 cells at 1 to 10 uM measured after 16 hrs by Western blotting analysis; assay type: functional, cell-based; settings: dose 1-10 µM
A 172 [14] = assay: Induction of cell cycle arrest in human A-172 cells assessed as decrease in accumulation of cells at G0/G1 phase at 10 uM measured after 24 hrs by propidium iodide staining based flow cytometry analysis; assay type: functional
Glioblastoma stem cell [15] = assay: Antiproliferative activity against Temozolomide-resistant patient derived pt 5 Glioblastoma stem cell sphere assessed as reduction in cell viability at 10 uM measure after 3 days by MTT assay; assay type: functional, cell-based; settings: Homo sapiens, time 3.0 day
A 172 [16] = assay: Induction of cell cycle arrest in human A-172 cells assessed as decrease in accumulation of cells at S phase at 10 uM measured after 24 hrs by propidium iodide staining based flow cytometry analysis; assay type: functional
A 172 [17] = assay: Induction of cell cycle arrest in human A-172 cells assessed as accumulation of cells at subG1 phase at 10 uM measured after 48 hrs by propidium iodide staining based flow cytometry analysis; assay type: functional
U-87 MG [18] = assay: Antitumor activity against Temozolomide-resistant human U-87 MG cells xenografted in orthotopic BALB/c mouse assessed as prolongation of animal survival at 10 mg/kg, ip qod; assay type: functional, organism-based; settings: U-87MG ATCC
GBM [19] = assay: Inhibition of colony formation in Temozolomide-resistant patient derived pt 5 GBM cells at 10 uM measured after 3 days by crystal violet staining based analysis; assay type: functional, cell-based; settings: Homo sapiens, time 3.0 day
GBM [20] = assay: Inhibition of colony formation in Temozolomide-resistant patient derived pt 3 GBM cells at 10 uM measured after 3 days by crystal violet staining based analysis; assay type: functional, cell-based; settings: Homo sapiens, time 3.0 day
Glioblastoma stem cell [21] = assay: Antiproliferative activity against Temozolomide-resistant patient derived pt 3 Glioblastoma stem cell sphere assessed as reduction in cell viability at 10 uM measure after 3 days by MTT assay; assay type: functional, cell-based; settings: Homo sapiens, time 3.0 day
A 172 [22] = assay: Upregulation of acetylated H3 k9/k14 expression in human A-172 cells at 1 to 10 uM measured after 8 to 24 hrs by Western blotting analysis; assay type: functional, cell-based; settings: dose 1-10 µM, time 8-24 hrs
A 172 [23] = assay: Downregulation of Spl expression in human A-172 cells at 1 to 10 uM measured after 16 hrs by Western blotting analysis; assay type: functional, cell-based; settings: dose 1-10 µM
A 172 [24] = assay: Downregulation of PCNA expression in human A-172 cells at 1 to 10 uM measured after 16 hrs by Western blotting analysis; assay type: functional, cell-based; settings: dose 1-10 µM

Sequence of Histone deacetylase 1 (Q13547 whole entry): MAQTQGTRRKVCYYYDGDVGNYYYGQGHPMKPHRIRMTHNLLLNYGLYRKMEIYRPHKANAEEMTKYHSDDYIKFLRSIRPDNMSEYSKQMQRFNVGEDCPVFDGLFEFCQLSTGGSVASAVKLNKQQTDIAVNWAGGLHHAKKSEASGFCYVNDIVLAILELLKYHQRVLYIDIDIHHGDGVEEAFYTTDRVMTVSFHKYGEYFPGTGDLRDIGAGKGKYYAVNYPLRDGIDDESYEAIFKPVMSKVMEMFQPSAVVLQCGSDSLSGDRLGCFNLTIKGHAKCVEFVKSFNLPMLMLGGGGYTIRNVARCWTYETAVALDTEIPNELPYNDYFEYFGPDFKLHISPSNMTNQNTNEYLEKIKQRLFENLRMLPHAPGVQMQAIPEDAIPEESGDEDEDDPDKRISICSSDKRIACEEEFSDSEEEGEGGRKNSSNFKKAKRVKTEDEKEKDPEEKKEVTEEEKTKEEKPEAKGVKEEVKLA
Sequence of Histone deacetylase 2 (Q92769 whole entry): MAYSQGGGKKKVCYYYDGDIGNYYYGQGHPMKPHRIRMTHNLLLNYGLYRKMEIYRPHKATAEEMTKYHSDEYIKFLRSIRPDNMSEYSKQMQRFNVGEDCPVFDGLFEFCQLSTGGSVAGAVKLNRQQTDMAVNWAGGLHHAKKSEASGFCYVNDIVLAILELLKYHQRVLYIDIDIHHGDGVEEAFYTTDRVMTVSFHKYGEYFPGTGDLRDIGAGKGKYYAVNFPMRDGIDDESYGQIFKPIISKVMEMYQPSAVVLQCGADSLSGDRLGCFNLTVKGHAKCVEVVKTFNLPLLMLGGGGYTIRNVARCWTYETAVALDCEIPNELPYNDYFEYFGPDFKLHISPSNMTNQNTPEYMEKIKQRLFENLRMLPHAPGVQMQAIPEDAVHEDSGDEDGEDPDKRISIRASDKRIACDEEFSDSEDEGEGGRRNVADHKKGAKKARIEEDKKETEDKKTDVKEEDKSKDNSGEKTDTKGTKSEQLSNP

SMILES	IC50 (U-87 MG [1]) [nM]	IC50 (Histone deacetylase 8) [nM]	IC50 [4] [nM]	IC50 (Histone deacetylase 1) [nM]	IC50 (Histone deacetylase 2) [nM]	Activity (Astrocyte)	Activity (GBM [3])	Activity (U-87 MG [5]) [%]	other results
COc1cc2c(cc1OC)C(=O)C(CC1CCN(C(=O)CCCCCC(=O)NO)CC1)C2 (stereo not given)	43200								
COc1cc2c(cc1OC)C(=O)C(CC1CCN(C(=O)CCCCCCCCC(=O)NO)CC1)C2 (stereo not given)	29100								
O=C(CCCCCCC(=O)Nc1ccccc1)NO [VORINOSTAT]						Toxic	Active		Activity (A 172 [2]): inactive
COc1cc2c(cc1OC)C(=O)C(CC1CCN(Cc3ccccc3)CC1)C2 (stereo not given) [DONEPEZIL]	47200						inactive		Activity (Glioblastoma stem cell [6]): Active; Activity (Glioblastoma stem cell [7]): Active; Activity (U-87 MG [8]): 50%; inhibition (GBM [9]): inactive; inhibition (GBM [10]): inactive; Activity (A 172 [2]): inactive
COc1cc2c(cc1OC)C(=O)C(CC1CCN(Cc3ccc(C(=O)NO)cc3)CC1)C2 (stereo not given)	46000								
COc1cc2c(cc1OC)C(=O)C(CC1CCN(C(=O)CCCCCCCC(=O)NO)CC1)C2 (stereo not given)	42800								

Further compounds by falling IC50 (U-87 MG [1]), results first:

IC50 (U-87 MG [1]) [nM]	IC50 (Histone deacetylase 8) [nM]	IC50 [4] [nM]	IC50 (Histone deacetylase 1) [nM]	IC50 (Histone deacetylase 2) [nM]	SMILES	Activity (Astrocyte)	Activity (GBM [3])	Activity (U-87 MG [5]) [%]	other results
17000					COc1cc2c(cc1OC)C(=O)C(CC1CCN(S(=O)(=O)c3ccc(/C=C/C(=O)NO)cc3)CC1)C2 (stereo not given)				
8010					COc1cc2c(cc1OC)C(=O)C(CC1CCN(C(=O)CCCCCCC(=O)NO)CC1)C2 (stereo not given)				
6380	1720	110	1670	3360	COc1cc2c(cc1OC)C(=O)C(CC1CCN(S(=O)(=O)c3cccc(/C=C/C(=O)NO)c3)CC1)C2 (stereo not given)				
6170	2150	49.6			COc1cc2c(cc1OC)C(=O)C(CC1CCN(Cc3ccc(NCc4ccc(C(=O)NO)cc4)cc3)CC1)C2 (stereo not given)	Non-Toxic	Active	90	inhibition (Histone deacetylase 1): inactive; inhibition (Histone deacetylase 2): inactive
5780	842	2.7	313	710	COc1cc2c(cc1OC)C(=O)C(CC1CCN(Cc3ccc(NC(=O)CCCCCCC(=O)NO)cc3)CC1)C2 (stereo not given)	Non-Toxic	Active	90	Activity (A 172 [11]): Active; Activity (A 172 [12]): Active; Activity (A 172 [13]): Active; Activity (A 172 [14]): Active; Activity (Glioblastoma stem cell [15]): Active; Activity (A 172 [16]): Active; Activity (Glioblastoma stem cell [6]): Active; Activity (A 172 [17]): Active; Activity (Glioblastoma stem cell [7]): Active; Activity (U-87 MG [18]): Active; inhibition (GBM [19]): Active; inhibition (GBM [20]): Active; Activity (Glioblastoma stem cell [21]): Active; Activity (A 172 [22]): Active; Activity (A 172 [2]): Active; Activity (A 172 [23]): Active; Activity (A 172 [24]): Active
4910	1240	51.5	611	1410	COc1cc2c(cc1OC)C(=O)C(CC1CCN(Cc3cccc(NC(=O)CCCCCCC(=O)NO)c3)CC1)C2 (stereo not given)	Non-Toxic	Active	90	Activity (A 172 [11]): Active; Activity (A 172 [14]): Active; Activity (A 172 [16]): Active; Activity (A 172 [17]): Active
1760	113	239	2430	500	COc1cc2c(cc1OC)C(=O)C(CC1CCN(Cc3ccc(/C=C/C(=O)NO)cc3)CC1)C2 (stereo not given)	Toxic	Active	90	
